The record followed here is patent US7786258B2, “Methods for inhibiting immune complex formation in a subject” (Trinity Therapeutics, Inc., priority 2004, dated 2010).

Positions of bridges follow the written chain, without caps; N, C: chain ends. No end group written: not given here.

In one assay the test system is RF. The experiment in a line: Inhibition of RF binding to immune complexes using additional peptides (Example 5). Particulars: for OD 405 nm: PAP pre-incubated with peptide one hour, RF coated plates, positive control 1.176. The protocol:
The ability of additional peptides to inhibit the binding of RF to immune complexes was tested. Immune complexes (PAP) were formed by mixing 2 μl of rabbit anti-peroxidase with 50 μl of peroxidase in 1 ml distilled water. PAP (100 μl) were pre-incubated with 100 μl of peptide for one hour. Plates coated with RF were blocked with 5× BSA for 24 hours. The PAP/peptide mixtures (100 μl) were incubated with the RF coated plates for 30 minutes. RF (100 μl of a 200 I.U. standard supplied by Research Diagnostics) was used as a negative control. After washing and incubation with ABTS substrate (Quidel Corp., San Diego, Calif.) for 15 minutes, plates were read at 405 nm.

The next assay deals with C1q. The assay is described as follows: Inhibition of C1q binding to immune complexes using additional peptides (Example 6). Particulars: for OD 405 nm: PAP pre-incubated with peptide or human C1q one hour, C1q coated plates, positive control 2.355. On the set-up: species or system human. The method, then:
The C1q/PAP and peptide/PAP mixtures (100 μl) were incubated with C1q coated plates for 30 minutes. After washing, plates were incubated with ATBS (Quidel Corp.) for 15 minutes and read at 405 nm.

The subject of the next assay is FcγIIa. The experiment in a line: Inhibition of FcR binding to PAP by additional peptides, FcγIIa coated plates (Example 8). Particulars: for OD 405 nm: OD read at 405 nm, positive control 1.599. The method, then: (§1) Falcon microtiter plates were coated with 1:10 dilutions of highly purified FcγIIa, FcγIIb and FcγIII, sealed, and incubated for […] at 4° C. […] PAP immune complexes were formed as described in Example 5. PAP (100 μl) were pre-incubated with 100 μl of peptide for one hour. PAP/peptide mixtures were added to the FcR coated plates and incubated for one hour. After washing, plates were incubated with ABTS substrate for 15 minutes and read at 405 nm.

A further assay relates to FcγIII. The assay is described as follows: Inhibition of FcR binding to PAP by additional peptides, FcγIII coated plates (Example 8). Particulars: OD read at 405 nm; positive control 1.588. The method, then:
as §1

A further assay relates to human monomeric IgG. The assay is described as follows: Inhibition of RF binding to monomeric IgG by additional peptides (Example 7). As to conditions: peptides pre-incubated 1 hour with monomeric IgG, then 200 I.U. RF; positive control 1.312. The protocol: The ability of additional peptides to inhibit RF binding to monomeric IgG was tested. A standard rheumatoid factor commercial test was used (Research Diagnostics, New Jersey) with the following modifications: 100 μl of test peptides were pre-incubated for 1 hour with human monomeric IgG (Research Diagnostics, New Jersey). Plates were then washed and incubated with 200 I.U. of the RF positive control supplied with the test kit. The rest of the test was performed according to the manufacturer's instructions.

The next assay relates to FcγIIb. The experiment in a line: Inhibition of FcR binding to PAP by additional peptides, FcγIIb coated plates (Example 8). As to conditions: OD read at 405 nm; positive control 1.394. The protocol:
as §1

Another assay deals with histone. The experiment in a line: Inhibition of histone binding: PAP immune complexes on histone-coated plates (Example 3). The protocol: Inhibition of histone binding: The binding of immune complexes to the kidneys in lupus nephritis appears to involve (a) the binding of histones to the GBM, and then (b) the binding of immune complexes (through the IgG Fc CH2-CH3 cleft) to the bound histones. Experiments similar to those described above were used to inhibit binding of purified histone to IgG Fc binding. Histone (Sigma) was diluted 1:10 in coating buffer (Alpha Diagnostic International) and incubated on Falcon microtiter plates for 24 hours. Plates were blocked with 5× BSA blocking solution (Alpha Diagnostic International) for 24 hours. Freshly prepared 1:10 rabbit PAP (Sigma) was pre-incubated with either peptides or histone for one hour, and 100 μl of the mixture was added to the histone-coated plates for one hour. Plates were incubated with ABTS substrate (Quidel Corp.) for 45 minutes, and OD 405 was read.

The next assay deals with MBP. The method, then:
Inhibition of MBP binding: MBP (Sigma) was diluted 1:10 with coating buffer (Alpha Diagnostic International) and incubated for 24 hours on Falcon microtiter plates. Plates were washed and then blocked with 5× BSA blocking buffer (Alpha Diagnostic International) for 24 hours. Rabbit 1:10 PAP immune complexes were pre-incubated with equal amounts of peptide or MBP for 30 minutes. One hundred μl of PAP immune complexes/peptide or PAP/MBP was then added to the MBP-coated plates and incubated for one hour. The plates were washed and incubated with TMB substrate (Alpha Diagnostic International) for 30 minutes. After adding stop solution (Alpha Diagnostic International), the plates were read at 450 nm.
Further experiments were conducted to determine the effect of SEQ ID NO:47 (also referred to as NB-406) on binding of MBP to IgG PAP immune complexes.

On to “APPCAWHLGELVWCT (disulfide 4-14 (inferred))”, for which the “OD 405 nm” value in the assay on RF came out at 0.250; with C1q, 1.148; in the assay on FcγIIa it was 0.658; in the assay with human monomeric IgG, 1.166; in the assay with FcγIIb it was 0.562. For the same sequence, the “OD at 405 nm” value with FcγIII was 0.530.
Consider “APPCAFHLGELVWCT (disulfide 4-14 (inferred))”, for which the “OD 405 nm” value in the assay on RF is 0.226; in the assay with C1q, 0.983; in the assay with FcγIIa it was 0.605; in the assay on human monomeric IgG, 1.159; in the assay with FcγIIb it was 0.380. The “OD at 405 nm” value with FcγIII is 0.880.
For the sequence “DCAFHLGELVWCT (disulfide 2-12 (inferred))”, the “OD 405 nm” value was found to be 0.267 in the assay on RF; 0.859 with C1q; 0.660 with FcγIIa; 0.962 in the assay on human monomeric IgG; 0.510 in the assay with FcγIIb. Also, the “OD at 405 nm” value with FcγIII turned out to be 0.810.
For the sequence “APPDCAWHLGELVWCT (Synthetically generated polypeptide)”, the “OD 405 nm” value amounted to 0.205 in the assay with RF; 0.389 in the assay with C1q; 0.509 in the assay on FcγIIa; 0.227 in the assay on histone (Table 5 experiment, IgG PAP immune complexes, positive control 2.110); 0.500 in the assay on MBP (Table 7 experiment, IgG PAP immune complexes, positive control 2.343); 1.065 with human monomeric IgG. The “OD 405 nm” value in the assay on FcγIIb was 0.496. For the same sequence, the “inhibition of RF binding to immune complexes, in words” value with RF (Table 10) is reported as “best inhibition”. Moreover, in the assay on C1q (Table 11), the “inhibition of C1q binding, in words” value is recorded as “greatest inhibition”. Besides, the “inhibition of FcR binding to PAP, in words” value in the assay with FcγIIa (Table 13, statement for FcγIIa, FcγIIb and FcγIII together) is “greatest inhibition”. Further, in the assay on histone (text on Tables 4 and 5), the “inhibition of histone binding to immune complexes, in words” value is reported as “significantly inhibit”. In addition, the “OD at 405 nm” value with FcγIII is listed as 0.670. Besides, in the assay with MBP (text on Tables 6 and 7), the “inhibition of MBP binding to immune complexes, in words” value is recorded as “able to inhibit”.
